From patent US20110098177A1, “METHODS AND COMPOSITIONS OF PLANT MICRONUTRIENTS” (NOVUS INTERNATIONAL INC., priority 2006, published 2011)
“Also recorded” adds a separate entry of the source. Marks after values point to notes of the source that are not given here.

Columns and labels:
Assay type in all cases: in vivo
[1] = tested on: Patriot bell pepper plants; assay: Foliar nutrient concentration at 6 WAT, open-field bell pepper (Examples 7-10); settings: for Foliar B concentration of bell pepper plants / Foliar Ca concentration of bell pepper plants / Foliar Cu concentration of bell pepper plants / Foliar Fe concentration of bell pepper plants / Foliar K concentration of bell pepper plants / Foliar Mg concentration of bell pepper plants / Foliar Mn concentration of bell pepper plants / Foliar N concentration of bell pepper plants / Foliar P concentration of bell pepper plants / Foliar Zn concentration of bell pepper plants: product rate as Table 17
Summary of the method: (§1)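 Open-field Florida trial, spring 2008: transplants at 4-true-leaf stage on drip-irrigated raised beds were foliar-sprayed at 3 and 5 WAT (BIOX-CM at 4 and 5 WAT) at 60 gal/acre with non-ionic surfactant. Most recent mature leaves were sampled at 6 WAT. Tomato fruit was USDA-graded and analysed for minerals.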

Aristotle bell pepper = assay: Marketable yield per plant, greenhouse Fall 2007, bell pepper; settings: for Marketable yield per plant, Pepper: foliar application at 3 and 7 WAT, rates not separated; for Bell pepper yield compared with control (in words): foliar applications, P<0.05
Experimental: (§2) The following experiments were performed in a green house during the fall of 2007 at GCREC, Balm, University of Florida. Fifteen products, at 3 different application rates were examined. The plot size was 2-gallon pots. Crop set-up, procedures and variables were as follows.
(§3) Transplants of ‘Florida-47’ tomato and ‘Aristotle’ bell pepper plants in the 4-true leaf stage (about 6 inches tall) were planted in 2-gal pots on Aug. 27, 2007. Pots were filled with a commercially available planting medium. This medium was selected based on the mineral composition of the products to be applied without providing significant nutritional inputs to the crops. Irrigation was provided with drip lines delivering between 0.50 and 0.33 gal/day/pot for tomato and bell pepper, respectively, and the crops were irrigated three times per day. No foliar pesticides were necessary.
(§4) There were four control treatments corresponding to each target micronutrient in which non-Fe, non-Mn, non-Zn or non-Cu pots received all other essential nutrients under non-limiting conditions.
(§5) Treatments were applied at three rates (high, medium and low) obtained from the estimated concentration of Zn, Fe, Cu, and Mn foliarly-applied in tomato and bell pepper in field situations (Table 1). Products were weighed and dissolved in 200 ml of deionized water with a non-ionic surfactant and applied to the newly-matured open leaves of each crop at 3 and 7 weeks after transplant (WAT). Treated pots were isolated during application to avoid cross-contamination of other treatments.
(§6) Medium nutrient concentration was determined 1 week before treatment. The mineral composition of the medium was 26.8 ppm NH4—N, 49 ppm NO3—N, 15.8 ppm P, 91.2 ppm K, 82.3 ppm Ca, 58.2 ppm Mg, 23.9 ppm Na, 125.6 ppm S, 1.33 ppm Fe, 0.39 ppm Mn, 0.35 ppm Zn, 0.05 pp, Cu, 0.04 ppm B, 0 ppm Mo, 0.73 ppm Al, and 12.1 ppm Si. The pH of the medium was 5.36 and the electric conductivity was 1.38 mS/cm. The foliar tissue analysis was performed at 6 WAT and the concentration of N, P, K, Mg, Ca, S, B, Zn, Mn, Fe, and Cu was determined by a commercial laboratory. Plant toxicity was determined at 4 WAT by using a 0-10 visual scale, where 0=no visible damage and 10=total plant death. Marketable fruit weight was collected 2 times in bell pepper and 4 times in tomato following USDA standards.
(§7) Data were analyzed using a general linear model, and means were separated using orthogonal contrasts at the 5% significance level.

Tygress tomato plants [2] = assay: Marketable yield, open-field tomato (Examples 7-10); settings: open field; for Marketable yield, Tomato: lb/acre/season: BIOX-Z 1.3, Cu 6.7, M 23.0, Fe 3.2, INC 4.0, INZ 0.6, CM 10.0, GZ 1.0, GF 4.0, EDZ 1.4, EDM 23.0
Summary of the method: as §1

Tygress tomato plants [3] = assay: Nutrient concentration of tomato fruits at 10 WAT, open field (Examples 7-10); settings: for B concentration of tomato fruits / Ca concentration of tomato fruits / Cu concentration of tomato fruits / Fe concentration of tomato fruits / K concentration of tomato fruits / Mg concentration of tomato fruits / Mn concentration of tomato fruits / N concentration of tomato fruits / P concentration of tomato fruits / Zn concentration of tomato fruits: 10 WAT, open field, product rate as Table 17
Summary of the method: as §1

Florida-47 tomato = assay: Marketable yield per plant, greenhouse Fall 2007, tomato; settings: for Marketable yield per plant, Tomato: foliar application at 3 and 7 WAT, rates not separated; for Tomato yield compared with control (in words): foliar applications, P<0.05
Experimental: as §2, §3, §4, §5, §6, §7

Tygress tomato plants [4] = assay: Foliar nutrient concentration at 6 WAT, open-field tomato (Examples 7-10); settings: 6 WAT, open field; for Foliar B concentration of tomato plants / Foliar Ca concentration of tomato plants / Foliar Cu concentration of tomato plants / Foliar Fe concentration of tomato plants / Foliar K concentration of tomato plants / Foliar Mg concentration of tomato plants / Foliar Mn concentration of tomato plants / Foliar N concentration of tomato plants / Foliar P concentration of tomato plants / Foliar Zn concentration of tomato plants: product rate as Table 17
Summary of the method: as §1

Compound	Foliar B concentration of bell pepper plants ([1]; 6 WAT, open field) [ppm]	Foliar Ca concentration of bell pepper plants ([1]; 6 WAT, open field) [%]	Foliar Cu concentration of bell pepper plants ([1]; 6 WAT, open field)	Foliar Fe concentration of bell pepper plants ([1]; 6 WAT, open field) [ppm]	Foliar K concentration of bell pepper plants ([1]; 6 WAT, open field) [%]	Foliar Mg concentration of bell pepper plants ([1]; 6 WAT, open field) [%]	Foliar Mn concentration of bell pepper plants ([1]; 6 WAT, open field) [ppm]	Foliar N concentration of bell pepper plants ([1]; 6 WAT, open field) [%]	Tomato marketable yield compared to control, statement (Tygress tomato plants [2])	Marketable yield, Tomato (Tygress tomato plants [2])	Foliar B concentration of tomato plants (Tygress tomato plants [4]) [ppm]	Foliar Ca concentration of tomato plants (Tygress tomato plants [4]) [%]	Foliar Cu concentration of tomato plants (Tygress tomato plants [4])	Foliar Fe concentration of tomato plants (Tygress tomato plants [4]) [ppm]	Foliar K concentration of tomato plants (Tygress tomato plants [4])	Foliar Mg concentration of tomato plants (Tygress tomato plants [4]) [%]	Foliar Mn concentration of tomato plants (Tygress tomato plants [4])	Foliar N concentration of tomato plants (Tygress tomato plants [4]) [%]	Foliar P concentration of tomato plants (Tygress tomato plants [4])	Foliar Zn concentration of tomato plants (Tygress tomato plants [4])	also measured
CSCCC(O)C(=O)[O-].CSCCC(O)C(=O)[O-].[Cu+2] (centres unmarked) [BIOX-Cu, Cu-HMTBA]	42	1.8	407 b ppm	83	5.6	0.58	211	5.0	significantly increased tomato marketable yields relative to control; also recorded: significantly higher marketable yield of tomato fruits compared to control	19.2 a ton/acre	42	1.8	407 b ppm	83	5.6%	0.58	211 ppm	5.0	0.21%	306 ppm	Foliar P concentration of bell pepper plants ([1]; 6 WAT, open field): 0.21%; Foliar Zn concentration of bell pepper plants ([1]; 6 WAT, open field): 306 ppm; Marketable yield per plant, Pepper (Aristotle bell pepper): 4.0* lb/plant; Bell pepper yield compared with control (in words) (Aristotle bell pepper): significantly increased; B concentration of tomato fruits (Tygress tomato plants [3]): 21 ppm; Ca concentration of tomato fruits (Tygress tomato plants [3]): 0.2%; Cu concentration of tomato fruits (Tygress tomato plants [3]): 21 ppm; Fe concentration of tomato fruits (Tygress tomato plants [3]): 77 ppm; K concentration of tomato fruits (Tygress tomato plants [3]): 8.5%; Mg concentration of tomato fruits (Tygress tomato plants [3]): 0.39%; Mn concentration of tomato fruits (Tygress tomato plants [3]): 37 ppm; N concentration of tomato fruits (Tygress tomato plants [3]): 4.4%; P concentration of tomato fruits (Tygress tomato plants [3]): 0.67%; Zn concentration of tomato fruits (Tygress tomato plants [3]): 294 ppm; Marketable yield per plant, Tomato (Florida-47 tomato): 5.5* lb/plant; Tomato yield compared with control (in words) (Florida-47 tomato): significantly increased
EDTA chelated zinc [BIOX-EDZ]	59	4.2	421 ppm	121	3.2	0.47	284	4.2	significantly higher than the control tomato harvest	16.2 ton/acre	44	1.9	371 ppm	90	5.2%	0.69	207 ppm	4.9	0.24%	310 bc ppm	Foliar Zn concentration of bell pepper plants compared to control, statement ([1]; 6 WAT, open field): significantly higher foliar concentration of Zn; Foliar P concentration of bell pepper plants ([1]; 6 WAT, open field): 0.24%; Foliar Zn concentration of bell pepper plants ([1]; 6 WAT, open field): 234 a ppm; B concentration of tomato fruits (Tygress tomato plants [3]): 22 ppm; Ca concentration of tomato fruits (Tygress tomato plants [3]): 0.2%; Cu concentration of tomato fruits (Tygress tomato plants [3]): 23 ppm; Fe concentration of tomato fruits (Tygress tomato plants [3]): 82 ppm; K concentration of tomato fruits (Tygress tomato plants [3]): 8.5%; Mg concentration of tomato fruits (Tygress tomato plants [3]): 0.37%; Mn concentration of tomato fruits (Tygress tomato plants [3]): 43 ppm; N concentration of tomato fruits (Tygress tomato plants [3]): 4.4%; P concentration of tomato fruits (Tygress tomato plants [3]): 0.66%; Zn concentration of tomato fruits (Tygress tomato plants [3]): 1018 ppm; Foliar Zn concentration of tomato plants, statement (Tygress tomato plants [4]): All treatments except BIOX-EDZ resulted in significantly higher foliar Zn concentrations
CSCCC(O)C(=O)[O-].CSCCC(O)C(=O)[O-].[Mn+2] (centres unmarked) [BIOX-M, Mn-HMTBA]	59	4.2	462 ppm	124	3.4	0.52	436	4.4	significantly higher marketable yield of tomato fruits; also recorded: higher marketable yield of tomato fruits compared to control	18.1 a ton/acre	70	1.7	417 ppm	88	4.6 b %	0.56	470 a ppm	4.4	0.19 b %	266 b ppm	Foliar P concentration of bell pepper plants ([1]; 6 WAT, open field): 0.25%; Foliar Zn concentration of bell pepper plants ([1]; 6 WAT, open field): 63 ppm; Marketable yield per plant, Pepper (Aristotle bell pepper): 3.9* lb/plant; Bell pepper yield compared with control (in words) (Aristotle bell pepper): significantly increased; B concentration of tomato fruits (Tygress tomato plants [3]): 23 ppm; Ca concentration of tomato fruits (Tygress tomato plants [3]): 0.2%; Cu concentration of tomato fruits (Tygress tomato plants [3]): 23 b ppm; Fe concentration of tomato fruits (Tygress tomato plants [3]): 81 b ppm; K concentration of tomato fruits (Tygress tomato plants [3]): 8.0%; Mg concentration of tomato fruits (Tygress tomato plants [3]): 0.37%; Mn concentration of tomato fruits (Tygress tomato plants [3]): 43 b ppm; N concentration of tomato fruits (Tygress tomato plants [3]): 4.2%; P concentration of tomato fruits (Tygress tomato plants [3]): 0.65%; Zn concentration of tomato fruits (Tygress tomato plants [3]): 209 b ppm; Marketable yield per plant, Tomato (Florida-47 tomato): 5.8* lb/plant; Tomato yield compared with control (in words) (Florida-47 tomato): significantly increased; Foliar concentration of Mn of tomato plants, statement (Tygress tomato plants [4]): significant increase; also recorded: highest foliar concentration of Mn; also recorded: significantly higher foliar Mn content; Foliar concentration of P of tomato plants compared to control, statement (Tygress tomato plants [4]): significant increase
Fe-HMTBA [BIOX-Fe]									significantly higher tomato marketable yield compared to control	17.8 a ton/acre	21	0.2	21 ppm	77	8.2%	0.37	37 ppm	4.2	0.69%	294 ppm	Foliar nutrient concentration: B ([1]; bell pepper plants at 6 WAT): 39 ppm; Foliar nutrient concentration: Ca ([1]; bell pepper plants at 6 WAT): 2.2%; Foliar nutrient concentration: Cu ([1]; bell pepper plants at 6 WAT): 369 ppm; Foliar nutrient concentration: Fe ([1]; bell pepper plants at 6 WAT): 112 ppm; Foliar nutrient concentration: K ([1]; bell pepper plants at 6 WAT): 6.0%; Foliar nutrient concentration: Mg ([1]; bell pepper plants at 6 WAT): 0.66%; Foliar nutrient concentration: Mn ([1]; bell pepper plants at 6 WAT): 251 ppm; Foliar nutrient concentration: N ([1]; bell pepper plants at 6 WAT): 5.0%; Foliar nutrient concentration: P ([1]; bell pepper plants at 6 WAT): 0.20%; Foliar nutrient concentration: Zn ([1]; bell pepper plants at 6 WAT): 318 ppm; Nutrient concentration of tomato fruits: B (Tygress tomato plants [3]; tomato fruits at 10 WAT): 21 ppm; Nutrient concentration of tomato fruits: Ca (Tygress tomato plants [3]; tomato fruits at 10 WAT): 0.2%; Nutrient concentration of tomato fruits: Cu (Tygress tomato plants [3]; tomato fruits at 10 WAT): 21 ppm; Nutrient concentration of tomato fruits: Fe (Tygress tomato plants [3]; tomato fruits at 10 WAT): 77 ppm; Nutrient concentration of tomato fruits: K (Tygress tomato plants [3]; tomato fruits at 10 WAT): 8.2%; Nutrient concentration of tomato fruits: Mg (Tygress tomato plants [3]; tomato fruits at 10 WAT): 0.37%; Nutrient concentration of tomato fruits: Mn (Tygress tomato plants [3]; tomato fruits at 10 WAT): 37 ppm; Nutrient concentration of tomato fruits: N (Tygress tomato plants [3]; tomato fruits at 10 WAT): 4.2%; Nutrient concentration of tomato fruits: P (Tygress tomato plants [3]; tomato fruits at 10 WAT): 0.69%; Nutrient concentration of tomato fruits: Zn (Tygress tomato plants [3]; tomato fruits at 10 WAT): 294 ppm
